Test results taken from US8147801B2, “Methods of using alpha-methylglucoside (AMG) as an indicator for glucose absorption and excretion” (Janssen Pharmaceutica, N.V., priority 2009, dated 2012).

Legend:
[1] = tested on: Male Sprague-Dawley (SD) rats; assay: Oral AMG test in rats: AMG measured by NMR in GI tract, plasma and urine after SGLT inhibitor dosing; format: in vivo, rat; settings: for AMG content retained in the GI system / amount of AMG detected in plasma / amount of AMG detected in the urine: rats, compound 0.3 or 3.0 mg/kg oral, AMG 2 g/kg oral 1 h later; for AMG content retained in the GI system: FIG. 1A; for amount of AMG detected in plasma: FIG. 1B; for amount of AMG detected in the urine: FIG. 1C
Experimental: Male Sprague-Dawley (SD) rats were dosed by oral gavage with either vehicle, 0.5% methylcellulose (methocel) in sterile water, or one of the SGLT inhibitors (Compound 1 and Compound 2) at 0.3 or 3.0 mg/kg. Compounds were administered as a suspension in 0.5% methylcellulose and sterile water. One hour after dosing the animals with the compounds, AMG was administrated orally via gavage (2 g/kg). AMG was dissolved in sterile water. Rats were sacrificed 120 or 240 minutes after AMG administration. Urine and plasma samples were collected and the entire gastrointestinal tract was removed and placed into saline. Subsequently, a GI lysate was made. Aliquots were taken from the samples of plasma, urine and the GI lysate and were extracted with acetonitrile to precipitate protein. […] The aqueous portion was dried down and re-suspended in deuterated water to a volume of 0.5 ml.
Proton NMR spectra were acquired on a Bruker DMX 600 MHz NMR spectrometer (Bruker Biospin Corporation, Billerica, Mass.) with the probe temperature maintained at 32° C. The mildly elevated temperature was used to enhance the chemical shift separation between the solvent peak (the residual water in the sample) and the anomeric proton of AMG (a doublet at 4.80 ppm) which was used for quantification. The solvent peak was saturated using very low power irradiation (a field strength of about 4 Hz) during the pre-pulse delay followed by a 30° pulse to acquire the signal. The pre-pulse delay was 3.0 s and the acquisition time was 2.1 s. The sweep width was 13 ppm using 32 k complex points. Before fourier transformation the data was apodized with 0.5 Hz exponential linebroadening. The amount of AMG present in the sample was determined relative to an internal reference, DSS (2,2-dimethyl-2-silapentane-d6-sulfonic acid, sodim salt) at 0.00 ppm.

SGLT1 [2] = target: T1, SGLT1 (Homo sapiens, UniProt P13866); assay: Cell-based 14C-AMG uptake inhibition assay, CHOK1 cells expressing human SGLT1; parameters: expressed in transfected cells; settings: CHOK1 cells stably expressing human SGLT1, 0.5 mM 14C-AMG, 30 min uptake; read-out: hSGLT1 (IC50, nM) [A]
T1 sequence (P13866 1-664): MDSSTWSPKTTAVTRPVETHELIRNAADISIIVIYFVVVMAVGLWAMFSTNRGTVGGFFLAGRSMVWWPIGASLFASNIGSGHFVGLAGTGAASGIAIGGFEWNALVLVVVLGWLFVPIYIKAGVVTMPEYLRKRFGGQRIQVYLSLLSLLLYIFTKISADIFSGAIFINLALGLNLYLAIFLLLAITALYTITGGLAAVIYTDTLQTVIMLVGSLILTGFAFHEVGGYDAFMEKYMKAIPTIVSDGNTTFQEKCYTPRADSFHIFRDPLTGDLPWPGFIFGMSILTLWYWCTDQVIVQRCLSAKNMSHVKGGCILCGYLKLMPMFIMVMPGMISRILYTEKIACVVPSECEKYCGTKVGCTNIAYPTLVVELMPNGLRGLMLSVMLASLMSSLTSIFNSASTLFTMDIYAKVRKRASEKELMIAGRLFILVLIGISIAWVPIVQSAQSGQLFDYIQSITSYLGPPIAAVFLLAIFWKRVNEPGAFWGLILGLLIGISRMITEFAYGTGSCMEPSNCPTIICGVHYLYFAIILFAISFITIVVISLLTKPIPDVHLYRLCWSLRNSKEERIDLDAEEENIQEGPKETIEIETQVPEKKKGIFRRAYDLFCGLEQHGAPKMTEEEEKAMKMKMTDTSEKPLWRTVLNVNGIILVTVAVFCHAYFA
Experimental: (§1) Inhibition of SGLT activity with Compound 1 and Compound 2 was assessed in CHOK1 cells stably expressing either human SGLT1 or human SGLT2. Compound 1 and Compound 2, are described in U.S. Patent Application Nos. 2005/0233988 and 2008/0027122, the contents of which are incorporated by reference in their entirety.
CHOK1 cells expressing human SGLT2 or human SGLT1 were seeded in 24-well plates at a density of approximately 400,000 cells/well in F-12 nutrient mixture (Ham's F-12) containing 10% fetal bovine serum, 400 ug/ml Geneticin, 50 units/ml sodium penicillin G (Gibco-BRL) and 50 ug/ml streptomycin sulfate. Cells were maintained in culture for 2 days at 37° C. in a humidified atmosphere containing 5% CO2. On the day of the assay, Compound 1 and Compound 2 were dissolved in DMSO and then diluted in assay buffer. The final concentration of DMSO was 0.5%. Assay buffer contained 137 mM NaCl, 5 mM KCl, 1 mM CaCl2, 1 mM MgCl2, 50 mM Hepes, and 20 mM Tris, pH 7.4. To start the assay, cells were washed once with the assay buffer and then incubated with 250 ul of the assay buffer containing Compound 1 or Compound 2 for 10 min at 37° C. […] Cells were then solubilized with 0.3 N NaOH and aliquots were taken for determination of radioactivity by a liquid scintillation counter. […] Specific uptake was normalized for the protein concentrations measured by the method of Bradford. […]

SGLT2 [3] = target: T2, SGLT2 (Homo sapiens, UniProt P31639); assay: Cell-based 14C-AMG uptake inhibition assay, CHOK1 cells expressing human SGLT2; parameters: expressed in transfected cells; settings: for IC50: CHOK1 cells stably expressing human SGLT2, 0.5 mM 14C-AMG, 30 min uptake, read-out: hSGLT2 (IC50, nM) [B]; for [A]/[B] (fold): ratio hSGLT1 IC50 / hSGLT2 IC50
T2 sequence (P31639 1-672): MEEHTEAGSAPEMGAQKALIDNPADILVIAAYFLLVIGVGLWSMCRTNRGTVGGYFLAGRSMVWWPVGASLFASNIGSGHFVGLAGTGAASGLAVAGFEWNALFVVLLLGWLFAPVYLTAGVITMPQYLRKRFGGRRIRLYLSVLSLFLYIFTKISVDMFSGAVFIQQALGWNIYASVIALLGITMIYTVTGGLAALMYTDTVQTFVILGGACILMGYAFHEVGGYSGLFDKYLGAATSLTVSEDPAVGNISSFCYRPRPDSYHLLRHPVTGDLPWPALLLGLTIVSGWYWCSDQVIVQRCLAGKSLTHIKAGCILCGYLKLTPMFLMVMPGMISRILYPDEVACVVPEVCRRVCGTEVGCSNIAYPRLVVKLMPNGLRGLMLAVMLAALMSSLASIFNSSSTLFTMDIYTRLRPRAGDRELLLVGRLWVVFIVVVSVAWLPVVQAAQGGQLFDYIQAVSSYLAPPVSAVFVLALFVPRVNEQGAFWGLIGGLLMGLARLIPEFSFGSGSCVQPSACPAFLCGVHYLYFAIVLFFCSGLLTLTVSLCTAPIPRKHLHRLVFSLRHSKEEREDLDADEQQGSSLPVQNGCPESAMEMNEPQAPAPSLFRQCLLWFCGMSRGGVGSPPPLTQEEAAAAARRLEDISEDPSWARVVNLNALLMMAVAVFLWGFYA
Experimental: as §1
CHOK1 cells expressing human SGLT2 or human SGLT1 were seeded in 24-well plates at a density of approximately 400,000 cells/well in F-12 nutrient mixture (Ham's F-12) containing 10% fetal bovine serum, 400 ug/ml Geneticin, 50 units/ml sodium penicillin G (Gibco-BRL) and 50 ug/ml streptomycin sulfate. Cells were maintained in culture for 2 days at 37° C. in a humidified atmosphere containing 5% CO2. On the day of the assay, Compound 1 and Compound 2 were dissolved in DMSO and then diluted in assay buffer. The final concentration of DMSO was 0.5%. Assay buffer contained 137 mM NaCl, 5 mM KCl, 1 mM CaCl2, 1 mM MgCl2, 50 mM Hepes, and 20 mM Tris, pH 7.4. To start the assay, cells were washed once with the assay buffer and then incubated with 250 ul of the assay buffer containing Compound 1 or Compound 2 for 10 min at 37° C. The transport reaction was initiated by addition of 50 ul ^14C-AMG solution (final concentration, 0.5 mM ^14C-AMG). After incubation for 30 minutes at 37° C., the uptake was stopped by aspiration of the incubation mixture and the cells were washed three times with ice-cold PBS. Cells were then solubilized with 0.3 N NaOH and aliquots were taken for determination of radioactivity by a liquid scintillation counter. Nonspecific AMG uptake was defined as that which occurred in the presence of 100 uM of phlorizin, a specific inhibitor of sodium-dependent glucose cotransporter. Specific uptake was normalized for the protein concentrations measured by the method of Bradford. The 50% inhibitory concentration (IC50) values were calculated from dose-response curves by least square method.

[4] = tested on: facilitated glucose transporters (GLUTs); settings: cited from earlier work
[5] = tested on: rodent models of diabetes and one canine diabetes model; settings: cited from earlier work
SGLT1 [6] = target: T1, SGLT1; settings: literature value (Kanai et al. 1994; US 2008/0234367); cited from earlier work
SGLT2 [7] = target: T2, SGLT2; settings: literature value (Kanai et al. 1994; US 2008/0234367); cited from earlier work
[8] = rodent models of diabetes and one canine diabetes model

## CCc1ccc(Cc2cn([C@@H]3O[C@H](CO)[C@@H](O)[C@H](O)[C@H]3O)c3ccccc23)cc1 [Compound 1]
[1]
  AMG content retained in the GI system: did not cause a significant retention
  amount of AMG detected in plasma: dose-dependent decreases
  amount of AMG detected in the urine: increase in the amount of AMG detected in the urine
SGLT1 [2]
  IC50: 1700 nM
SGLT2 [3]
  IC50: 8.4 nM
  [A]/[B] (fold): 202 fold

## O=C(CCc1ccc(O)cc1)c1c(O)cc(O)cc1O [phloretin]
[4]
  inhibition of facilitated glucose transporters (GLUTs): potent inhibitor

## O=C(CCc1ccc(O)cc1)c1c(O)cc(O)cc1O[C@@H]1O[C@H](CO)[C@@H](O)[C@H](O)[C@H]1O [phlorizin]
[5]; [8]
  fasting and fed plasma glucose levels: lowered fasting and fed plasma glucose levels
  glucose excretion: promoted glucose excretion
[5]; treatment for as long as two weeks
  adverse effects on plasma ion balance, renal function or renal morphology: No adverse effects

## OC[C@@H]1O[C@H](n2cc(Cc3ccc(C4CC4)cc3)c3c(F)cccc32)[C@@H](O)[C@H](O)[C@H]1O [Compound 2]
[1]
  AMG content retained in the GI system: markedly increased at the higher dose
  amount of AMG detected in plasma: dose-dependent decreases
  amount of AMG detected in the urine: increased amount of AMG detected in the urine
SGLT1 [2]
  IC50: 270 nM
SGLT2 [3]
  IC50: 1.9 nM
  [A]/[B] (fold): 142 fold

## CO[C@H]1O[C@H](CO)[C@@H](O)[C@H](O)[C@H]1O [AMG, Methyl-alpha-D-glucopyranoside]
[1]; AMG 2 g/kg oral gavage, vehicle treated rats, GI system, plasma and urine samples
  absorption of oral AMG in vehicle treated rats: absorbed from the GI system
SGLT1 [6]
  Km: 400 µM
SGLT2 [7]
  Km: 1600 µM
